Key:
LDL = assay: Protection against LDL oxidation by copper (conjugated diene formation); assay type: biochemical; settings: FIG. 1-3; compound at 10^-4M; copper alone 348
Protocol: LDL oxidation is an important alteration and plays a predominant role in the establishment and development of atherosclerosis (Jurgens, Hoff et al. 1987). […] Unless otherwise indicated, the reagents were from Sigma (St Quentin, France).
LDL were prepared according to the method described by Lebeau et al. (Lebeau, Furman et al. 2000).
The solutions of test compounds were prepared at 10^−2 M concentration in bicarbonate buffer (pH 9) and diluted in PBS to obtain final concentrations ranging from 0.1 to 100 μM for a total ethanol concentration of 1% (V/V).
Prior to oxidation, EDTA was removed from the LDL preparation by dialysis. Oxidation then took place at 30° C. by addition of 100 μl of 16.6 μM CuSO4 solution to 160 μL of LDL (125 μg protein/ml) and 20 μl of a test compound solution. The formation of dienes, the species under observation, was followed by measuring optical density at 234 nm in the samples treated with the compounds but in the presence or absence of copper. Optical density at 234 nm was measured every 10 minutes for 8 hours in a thermostated spectrophotometer (Tecan Ultra 380). The analyses were performed in triplicate. The compounds were considered to have antioxidant activity when they induced a longer lag phase and reduced the rate of oxidation and the amount of dienes formed in comparison with the control sample. […] FIGS. 1, 2 and 3 give an example of the results illustrating the antioxidant properties of compounds 2 and 5.

PPARα = target: T1, PPARα (Homo sapiens, UniProt Q07869); assay: PPARα/Gal4 transactivation system in RK13 cells (luciferase reporter); assay type: cell-based, rabbit; settings: 24 hours
T1 construct: expressed in transfected cells; host or cells: RK13 cells
T1 sequence (Q07869 239-466 limits assumed): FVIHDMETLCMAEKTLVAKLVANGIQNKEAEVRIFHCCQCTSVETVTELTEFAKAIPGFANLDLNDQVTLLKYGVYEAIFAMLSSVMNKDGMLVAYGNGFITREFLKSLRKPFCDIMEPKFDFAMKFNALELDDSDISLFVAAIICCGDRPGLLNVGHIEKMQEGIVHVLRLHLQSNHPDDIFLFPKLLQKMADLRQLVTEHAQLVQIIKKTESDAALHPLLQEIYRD
Protocol: RK13 cells were incubated with the different compounds at concentrations of 10, 30 and 100 μM or 1, 10 and 100 μM for 24 hours. The results are expressed as the induction factor (luminescent signal relative to untreated cells) after the different treatments.
(§1) PPAR activation was tested in vitro in RK13 fibroblast cell lines by measuring the transcriptional activity of chimeras composed of the DNA binding domain of the yeast gal4 transcription factor and the ligand binding domain of the different PPARs. These latter results were then confirmed in cell lines according to the following protocols:
(§2) RK13 cells were from ECACC (Porton Down, UK) and were grown in DMEM medium supplemented with 10% (V/N) fetal calf serum, 100 U/ml penicillin (Gibco, Paisley, UK) and 2 mM L-glutamine (Gibco, Paisley, UK). The culture medium was changed every two days. Cells were kept at 37° C. in a humidified 95% air/5% CO2 atmosphere.
(§3) The plasmids pG5TkpGL3, pRL-CMV, pGal4-hPPRAα, pGal4-hPPRAγ and pGal4-φ have been described by Raspe, Madsen et al. (1999). The pGal4-mPPRAα and pGal4-hPPRAγ constructs were obtained by cloning into the pGal4-φ vector of PCR-amplified DNA fragments corresponding to the DEF domains of the human PPARα and PPRAγ nuclear receptors.
[…] At the end of the experiment, the cells were lysed (Gibco, Paisley, UK) and luciferase activity was determined with a Dual-Luciferase™ Reporter Assay System kit (Promega, Madison, Wis., USA) according to the supplier's instructions as previously described (Raspe, Madsen et al. 1999).

PPARγ = target: T2, PPARγ (Homo sapiens, UniProt P37231); assay: PPARγ/Gal4 transactivation system in RK13 cells (luciferase reporter); assay type: cell-based; settings: 24 hours
T2 construct: expressed in transfected cells; host or cells: RK13 cells
T2 sequence (P37231 238-503 limits assumed): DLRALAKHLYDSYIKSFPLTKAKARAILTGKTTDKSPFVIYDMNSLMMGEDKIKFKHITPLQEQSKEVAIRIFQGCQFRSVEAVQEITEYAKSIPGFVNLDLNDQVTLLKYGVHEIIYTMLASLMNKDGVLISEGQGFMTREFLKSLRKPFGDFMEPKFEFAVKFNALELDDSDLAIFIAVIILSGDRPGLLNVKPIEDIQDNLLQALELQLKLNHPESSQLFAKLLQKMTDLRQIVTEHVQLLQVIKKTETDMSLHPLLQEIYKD
Protocol: RK13 cells were incubated with the different compounds at concentrations of 1, 10 and 100 μM for 24 hours. The results are expressed as the induction factor (luminescent signal relative to untreated cells) after the different treatments.
as §1, §2, §3
RK13 cells were seeded in 24-well culture dishes at 5×10^4 cells/well and transfected for 2 hours with the reporter plasmid pG5TkpGL3 (50 ng/well), the expression vectors pGal4-φ, pGal4-mPPRAα, pGal4-hPPRAα, pGal4-hPPRAγ (100 ng/well) and the transfection efficiency control vector PRL-CMV (1 ng/well) according to the previously described protocol (Raspe, Madsen et al. 1999), then incubated for 36 hours with the test compounds. At the end of the experiment, the cells were lysed (Gibco, Paisley, UK) and luciferase activity was determined with a Dual-Luciferase™ Reporter Assay System kit (Promega, Madison, Wis., USA) according to the supplier's instructions as previously described (Raspe, Madsen et al. 1999).

[1] = tested on: Apo E2/E2 transgenic mice; assay: Effects on triglyceride and cholesterol metabolism in vivo
Protocol: Apo E2/E2 transgenic mice were kept on a 12-hour light/dark cycle at a constant temperature of 20±3° C. After a 1 week acclimation, the mice were weighed and divided into groups of 6 animals selected so that body weight would be uniformly distributed. The test compounds were suspended in carboxymethylcellulose and administered by intragastric gavage at the indicated doses, once a day for 7 or 8 days. Animals had access to food and water ad libitum. At the end of the experiment the animals were weighed and sacrificed under anesthesia. Blood was collected on EDTA. Plasma was prepared by centrifugation at 3000 rpm for 20 minutes. Liver samples were taken and stored frozen in liquid nitrogen for subsequent analysis.
Serum lipid concentrations (total cholesterol and free cholesterol, triglycerides and phospholipids) were determined by a colorimetric assay (Boehringer, Mannheim, Germany) according to the supplier's instructions. Serum concentrations of apolipoproteins AI, AII and CIII were determined as previously described (Raspe et al. J. Lipid Res. 40, 2099-2110, 1999, Asset G et al., Lipids, 34, 39-44, 1999).

Compound	maximum amount of conjugated dienes formed (LDL)	Induction factor (luminescent signal relative to untreated cells) (PPARα; 1 μM)	Induction factor (luminescent signal relative to untreated cells) (PPARα; 10 μM, listed as Cp17)	Induction factor (luminescent signal relative to untreated cells) (PPARγ; 1 μM)	Induction factor (luminescent signal relative to untreated cells) (PPARγ; 10 μM)	Induction factor (luminescent signal relative to untreated cells) (PPARγ; 10 μM, listed as Cp17)	Induction factor (luminescent signal relative to untreated cells) (PPARγ; 100 μM)	triglycerides in large sized lipoparticles (exclusion chromatography) ([1]; gavage 200 mg/kg for 7 days, FIG. 3-3)	cholesterol in large sized lipoparticles (exclusion chromatography) ([1]; gavage 200 mg/kg for 7 days, FIG. 3-4)	Induction factor (luminescent signal relative to untreated cells) (PPARα; 1 μM, listed as Cp33)	Induction factor (luminescent signal relative to untreated cells) (PPARα; 10 μM, listed as Cp33)	Induction factor (luminescent signal relative to untreated cells) (PPARα; 100 μM, listed as Cp33)	Induction factor (luminescent signal relative to untreated cells) (PPARγ; 100 μM, listed as Cp33)	triglycerides in large sized lipoparticles (exclusion chromatography) ([1]; 50 mg/kg/day for 8 days, FIG. 3-11)	cholesterol in large sized lipoparticles (exclusion chromatography) ([1]; 50 mg/kg/day for 8 days, FIG. 3-12)
Cc1cc(/C=C/C(=O)c2ccc(Cl)cc2)cc(C)c1OC(C)(C)C(=O)O [Compound 17, 1-[4-chlorophenyl]-3-[3,5-dimethyl-4-carboxydimethylmethyloxyphenyil]prop-2-en-1-one]	327 nmol per mg of LDL	79.76	85.69	15.37	25	24.92	6.13	decreased	decreased	–	–	–	–	–	–
CCCCCCOc1ccc(C(=O)/C=C/c2cc(C)c(OC(C)(C)C(=O)O)c(C)c2)cc1 [Compound 33, 1-[4-hexyloxyphenyl]-3-[3,5-dimethyl-4-carboxydimethylmethyloxyphenyl]prop-2-en-1-one]	–	–	–	15.65	33.90	–	45.6	–	–	22.05	44.52	77.62	45.58	decrease	decrease
